Test results from patent US20190327974A1, “SYNERGISTS FOR IMPROVED PESTICIDES” (priority 2017, published 2019).

How the values were obtained:
[1] = tested on: Myzus persicae (Green peach aphid); assay: Efficacy of chlorpyrifos-ethyl with boronic acids on aphids on broad bean leaves; type: in vivo; conditions: for Percentage of efficacy: boronic acid where present 0.2 mg/ml
Protocol: Experimentations was carried out in BIOtransfer, France under controlled conditions.
Bean leaves were treated with chlorpyrifos 480 EC (480 g a.i./1) at 4 application rates (360, 180, 90, 45 g a.i./ha), used alone or in combination with 3 boronic acid (BA) derivates (3.10, 5 and 3.7) each at 0.2 mg/ml. The treatment was performed with an agricultural nozzle (300 L per hectare) […]. A non-treated control condition were also evaluated in parallel. Statistical analysis of the data was then performed. When the leaves were totally dry, 3 leaves were sampled and infested with 3 wingless adults of M. persicae per leaf fragment.
• T+1 (DAT 1)—One day later the number of adults remaining on the leaves was counted. • T+3 (DAT 3)—3 days after treatment the aphid population was estimated; • T+7 (DAT 7)—7 days after treatment the development of aphid population was estimated.
3 bean leaves fragments per microbox*4 microbox per condition (1 condition is 1 formulation at 1 dose)*9 adult aphids per microbox*4 insecticides (3 chlorpyrifos derivates+clorpyrifos alone)*4 rates+2 controls (1 reference insecticide formulation at one dose and non-treated)*3 assessments timings (DAT+1, DAT+3 and DAT+7).

[2] = tested on: panel of 26 human serine or threonine proteases; assay: Protease selectivity panel, summary over the panel; type: biochemical; conditions: 100 μM compound
Protocol: Test compounds were dissolved in 100% DMSO to make 10 mM stock. Final compound concentration in assay is […]. Compounds were tested in duplicate wells at single concentration and the final concentration of DMSO in all assays was kept at 1%. Five reference compounds, AEBSF, Carfilzomib, Granzyme B Inhibitor II, Dec-RVKR-CMK, and Teneligliptin hydrobromide, were tested in an identical manner with 8 concentration points at 5× dilutions.

## CCOP(=S)(OCC)Oc1nc(Cl)c(Cl)cc1Cl [CPE, Chlorpyrifos-ethyl]
[1]; CPE 0.7, 1 DAT
  Percentage of efficacy: 38%
[1]; CPE 0.7, 3 DAT
  Percentage of efficacy: 20%
[1]; CPE 0.7, 7 DAT
  Percentage of efficacy: 25%
[1]; CPE 1.4, 1 DAT
  Percentage of efficacy: 41%
  Calibration results (efficacy): 33%
[1]; CPE 1.4, 3 DAT
  Percentage of efficacy: 27%
  Calibration results (efficacy): 51%
[1]; CPE 1.4, 7 DAT
  Percentage of efficacy: 25%
  Calibration results (efficacy): 51%
[1]; CPE 2.8, 1 DAT
  Percentage of efficacy: 32%
  Calibration results (efficacy): 31%
[1]; CPE 2.8, 3 DAT
  Percentage of efficacy: 26%
  Calibration results (efficacy): 79%
[1]; CPE 2.8, 7 DAT
  Percentage of efficacy: 23%
  Calibration results (efficacy): 99%
[1]; CPE 5.6, 1 DAT
  Percentage of efficacy: 36%
  Calibration results (efficacy): 67%
[1]; CPE 5.6, 3 DAT
  Percentage of efficacy: 48%
  Calibration results (efficacy): 98%
[1]; CPE 5.6, 7 DAT
  Percentage of efficacy: 67%
  Calibration results (efficacy): 100%

## OB(O)c1cc(Br)cc(N2CCCC2)c1 [Compound 3]
[2]
  inhibition across the panel of 26 human proteases (in words): only 3 of the 26 proteases were inhibited by more than 50%
